Assay results published in ChEMBL document CHEMBL1156847, “Structure-based design of a thiazolidinedione which targets the mitochondrial protein mitoNEET” (Bioorg Med Chem Lett, 2010).

How the values were obtained:
[1] = molecular target: T1, CDGSH iron-sulfur domain-containing protein 1 (Rattus norvegicus, UniProt B0K020); assay: Displacement of [3H]rosiglitazone from rat liver mitochondrial mitoNEET by scintillation counting
T1 sequence (B0K020 whole entry): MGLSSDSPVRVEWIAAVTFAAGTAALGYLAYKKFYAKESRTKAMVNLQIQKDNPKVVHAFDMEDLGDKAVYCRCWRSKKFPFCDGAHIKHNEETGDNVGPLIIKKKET

SH-SY5Y [2] = assay: Neuroprotective activity against rotenone-induced cell death in human SH-SY5Y assessed as reduction in LDH release pretreated 1 hrs before rotenone challenge measured after 24 hrs relative to control; type: functional; design: scale not given: the % may be the effect or the level left
Rattus norvegicus = species on record: Rattus norvegicus; assay: Reduction in state 3 respiration in Sprague-Dawley rat mitochondria; type: functional; design: scale not given: the % may be the effect or the level left
SH-SY5Y [3] = assay: Neuroprotective activity against rotenone-induced cell death in human SH-SY5Y assessed as reduction in LDH release pretreated 1 hrs before rotenone challenge measured after 24 hrs; type: functional, cell-based
[4] = Inhibition of respiration in Sprague-Dawley rat mitochondria assessed as reduction in respiratory control rate; type: functional

Row | SMILES | IC50 [1] | Activity (SH-SY5Y [2]) | Activity (Rattus norvegicus) | Activity (SH-SY5Y [3]) | IC50 [4]
1 | CC(C)(C)c1cc(CC2SC(=O)N=C2O)cc(C(C)(C)C)c1O (configuration not stated) | 900 nM | 40% | 45% | Dose-dependent effect | 2400 nM
2 | CN(CCOc1ccc(CC2SC(=O)NC2=O)cc1)c1ccccn1 (configuration not stated) [ROSIGLITAZONE] | 1100 nM |  |  |  | 
3 | CCc1ccc(CCOc2ccc(CC3SC(=O)NC3=O)cc2)nc1 (configuration not stated) [PIOGLITAZONE] | 1000 nM |  |  |  | 
